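Test compounds were applied to cells in 96-well plates for 48 hours at 5 doses. At the GI50, growth is halved.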 Calls of active or inactive are those of the source. Rule as the data show it: active = GI50 up to about 1.1 µM and inactive = higher.

Some test systems named below: OVCAR-3; SR; CAKI-1; MOLT-4; K562; CCRF-CEM; UACC-257; OVCAR-5; SF-295; HCT-116; OVCAR-4; Malme-3M; A549; SK-MEL-28; HT-29; HCT-15; TK-10; HOP-92.
Common to all, as to experiment: growth of human tumour cells (NCI), 48 h

Consider `Cc1cc(O)c2c(c1)OC1(C)CCC3C(C)(C)CCCC34COC2C14` (centres undefined), for which the GI50 is 13.4 µM (inactive) in the assay on OVCAR-3; > 10 µM (inactive) in the assay with SR; 18.3 µM (inactive) with CAKI-1; 0.141 µM (active) in the assay on MOLT-4; 20.8 µM (inactive) in the assay on K562; 20 µM (inactive) in the assay on CCRF-CEM. Moreover, the GI50 was 15.5 µM (inactive) in the assay with UACC-257; 14.7 µM (inactive) with OVCAR-5; 15.1 µM (inactive) with SF-295; 14.3 µM (inactive) in the assay on HCT-116; 18.6 µM (inactive) in the assay on OVCAR-4; 13.3 µM (inactive) with Malme-3M. Besides, the GI50 with A549 is 13.1 µM (inactive).
With `CC1=C(C)C(=O)C2=C(OCCCO2)C1=O`, the GI50 with OVCAR-3 was 18.1 µM (inactive); in the assay on SR it was 21.9 µM (inactive); with SK-MEL-28, 35.6 µM (inactive); in the assay with HT-29 it was 20.8 µM (inactive); with MOLT-4, 2.4 µM (inactive); in the assay on K562, 21.6 µM (inactive). For the same compound, the GI50 was above 100 µM in the assay on HCT-15; 2.43 µM (inactive) with CCRF-CEM; > 10 µM (inactive) in the assay on UACC-257; > 10 µM (inactive) with OVCAR-5; 29.1 µM (inactive) with SF-295; > 10 µM (inactive) with HCT-116. The GI50 in the assay with OVCAR-4 was > 10 µM (inactive); in the assay with Malme-3M it was > 10 µM (inactive); with TK-10, > 10 µM (inactive); in the assay on A549, 81.8 µM (inactive).
For the compound `Cc1cc2nc3c(C(OC4OC(CO)C(O)C(O)C4O)C(O)CO)nn(-c4ccccc4)c3nc2cc1C` (centres undefined), the GI50 in the assay on OVCAR-3, in the assay with SR, with SK-MEL-28, in the assay with HT-29, in the assay with MOLT-4 and in the assay on K562 was > 100 µM (inactive) throughout. Further, the GI50 with HCT-15 was above 100 µM; in the assay with CCRF-CEM, > 100 µM (inactive); with UACC-257, > 100 µM (inactive); with OVCAR-5 it was > 100 µM (inactive); in the assay on SF-295, > 100 µM (inactive); in the assay on HCT-116 it was > 100 µM (inactive). Also, the GI50 with OVCAR-4, in the assay on Malme-3M and with TK-10 was > 100 µM (inactive) throughout.
`Cc1ccnc(NS(=O)(=O)c2ccc(NC3=CC(=O)C(=O)c4ccccc43)cc2)n1`: the GI50 with OVCAR-3, with SR, in the assay on CAKI-1, in the assay on SK-MEL-28, with HT-29 and in the assay on MOLT-4 was > 100 µM (inactive) throughout. In addition, the GI50 in the assay with K562 is > 100 µM (inactive); with HCT-15 it was above 100 µM; in the assay with CCRF-CEM, > 100 µM (inactive); in the assay with UACC-257, > 100 µM (inactive); in the assay with OVCAR-5, > 100 µM (inactive); in the assay with SF-295, > 100 µM (inactive). Besides, the GI50 in the assay on HCT-116, in the assay on OVCAR-4, with Malme-3M, in the assay with TK-10 and with A549 was > 100 µM (inactive) in each case.
As for `COc1ccc(NC(=O)C(=O)C2NC(=S)NC2=O)c(OC)c1` (centres undefined), the GI50 with OVCAR-3, in the assay with HOP-92, with SK-MEL-28, with HT-29, in the assay on MOLT-4 and in the assay with K562 was > 100 µM (inactive) each time. Also, the GI50 is above 100 µM in the assay on HCT-15; > 10 µM (inactive) in the assay on CCRF-CEM; > 100 µM (inactive) in the assay with UACC-257; > 100 µM (inactive) in the assay with SF-295; > 100 µM (inactive) in the assay on HCT-116; > 100 µM (inactive) in the assay with OVCAR-4. Further, the GI50 with Malme-3M, in the assay on TK-10 and in the assay with A549 was > 100 µM (inactive) throughout.
With `O=C(CSc1nnc(Cc2ccccc2)o1)Nc1ccccc1Cl`, the GI50 in the assay with OVCAR-3, with CAKI-1, in the assay on SK-MEL-28, in the assay on HT-29, in the assay on MOLT-4 and in the assay with K562 was > 100 µM (inactive) throughout. For the same compound, the GI50 with HCT-15 was above 100 µM; with CCRF-CEM it was > 100 µM (inactive); in the assay on OVCAR-5, > 100 µM (inactive); in the assay with SF-295 it was > 100 µM (inactive); with HCT-116, > 100 µM (inactive); with OVCAR-4, > 100 µM (inactive). The GI50 with Malme-3M, in the assay with TK-10 and in the assay with A549 was > 100 µM (inactive) in each case.
Turning to `CC(=O)Oc1cc(C)c2c(c1OC(C)=O)CC1(O2)[C@@H](C)CCC2[C@@]3(C)CC[C@H](OC(C)=O)C(C)(C)C3CC[C@]21C` (some centres undefined), the GI50 with OVCAR-3 was 2.72 µM (inactive); with SR, 3.03 µM (inactive); in the assay on HOP-92 it was 3.14 µM (inactive); in the assay on CAKI-1, 2.2 µM (inactive); in the assay with SK-MEL-28, 4.41 µM (inactive); in the assay with HT-29 it was 5.43 µM (inactive). The GI50 was 4.57 µM (inactive) with MOLT-4; 3.53 µM in the assay on HCT-15; 5.97 µM (inactive) with UACC-257; 5.46 µM (inactive) in the assay on OVCAR-5; 5.01 µM (inactive) in the assay on SF-295; 4.19 µM (inactive) with HCT-116. Further, the GI50 is > 10 µM (inactive) with OVCAR-4, 2.86 µM (inactive) with Malme-3M, 3.61 µM (inactive) in the assay with TK-10 and 5.3 µM (inactive) with A549.
As for `O=[N+]([O-])c1ccc(OCCNc2cccc3ccccc23)cc1`, the GI50 with OVCAR-3 is > 100 µM (inactive); with HOP-92 it was 94.2 µM (inactive); with CAKI-1, > 100 µM (inactive); in the assay with SK-MEL-28 it was > 100 µM (inactive); in the assay with HT-29, 85.5 µM (inactive); with MOLT-4 it was 20.3 µM (inactive). For the same compound, the GI50 was 18.6 µM (inactive) with K562; 9.73 µM in the assay on HCT-15; 38.2 µM (inactive) in the assay on CCRF-CEM; > 100 µM (inactive) in the assay with UACC-257; > 100 µM (inactive) in the assay on OVCAR-5; > 100 µM (inactive) in the assay with SF-295. For the same compound, the GI50 in the assay on HCT-116 is 42.8 µM (inactive); in the assay on OVCAR-4, > 100 µM (inactive); in the assay on Malme-3M, > 100 µM (inactive); in the assay on TK-10, > 100 µM (inactive); in the assay on A549 it was 60.1 µM (inactive).
Consider `C[Si](C)(C)OC1(C#N)C2C3CC4C2C(=O)C2C4C3C21` (centres undefined), for which the GI50 in the assay on OVCAR-3, with SR, with CAKI-1, in the assay on SK-MEL-28, in the assay on MOLT-4 and with K562 was > 100 µM (inactive) in each case. Besides, the GI50 in the assay on HCT-15 is above 100 µM; in the assay on CCRF-CEM, > 100 µM (inactive); in the assay with UACC-257, > 100 µM (inactive); in the assay with HCT-116, > 100 µM (inactive); with OVCAR-4 it was > 100 µM (inactive); with Malme-3M, > 100 µM (inactive). The GI50 in the assay on TK-10 and in the assay with A549 was > 100 µM (inactive) throughout.
In the case of `N#C/N=C(\NCCc1c[nH]c2ccccc12)NCc1ccccc1`, the GI50 is 42.8 µM (inactive) with OVCAR-3; 32.5 µM (inactive) with SR; 80.7 µM (inactive) in the assay on SK-MEL-28; 37.8 µM (inactive) in the assay with HT-29; 34.9 µM (inactive) with MOLT-4; 42.8 µM (inactive) in the assay with K562. The GI50 with HCT-15 is 49.4 µM; in the assay with CCRF-CEM, 29.9 µM (inactive); with UACC-257 it was 37 µM (inactive); with OVCAR-5 it was > 100 µM (inactive); in the assay with SF-295 it was 36 µM (inactive); in the assay on HCT-116, 50.9 µM (inactive). In addition, the GI50 with OVCAR-4 was 61.4 µM (inactive); with TK-10, 98.4 µM (inactive); with A549, 60.5 µM (inactive).
With `CSC1(C)CC2C(CC1N1CCOCC1)C2(C)C` (centres undefined), the GI50 in the assay on OVCAR-3 was > 100 µM (inactive); in the assay on HOP-92 it was 78.2 µM (inactive); in the assay on SK-MEL-28 it was > 100 µM (inactive); in the assay with HT-29, > 100 µM (inactive); in the assay with MOLT-4, > 100 µM (inactive); in the assay with K562, > 100 µM (inactive). In addition, the GI50 in the assay with HCT-15 is above 100 µM; with CCRF-CEM, > 100 µM (inactive); in the assay on UACC-257 it was > 100 µM (inactive); with OVCAR-5 it was > 100 µM (inactive); in the assay on SF-295, > 100 µM (inactive); in the assay on HCT-116 it was > 100 µM (inactive). Further, the GI50 in the assay with OVCAR-4, in the assay with Malme-3M, with TK-10 and with A549 was > 100 µM (inactive) in each case.
Regarding `CC(C)CCC[C@@H](C)C1CCC2[C@@H]3CC=C4C[C@@H](C(=O)NCCN(C)C)CC[C@]4(C)C3CC[C@@]21C` (some centres undefined), the GI50 in the assay on OVCAR-3 was 31.4 µM (inactive); with HOP-92 it was 5.89 µM (inactive); in the assay with CAKI-1 it was 22.3 µM (inactive); in the assay with SK-MEL-28, 35.2 µM (inactive); in the assay with HT-29, 34.2 µM (inactive); with MOLT-4, 31.1 µM (inactive). Also, the GI50 in the assay with K562 was 33 µM (inactive); in the assay with HCT-15, 19 µM; in the assay on CCRF-CEM it was 23.8 µM (inactive); with UACC-257, 22.4 µM (inactive); with OVCAR-5, > 100 µM (inactive); with SF-295, 44.4 µM (inactive). Besides, the GI50 in the assay with OVCAR-4 was 30.4 µM (inactive); with Malme-3M, 28.9 µM (inactive); in the assay on TK-10, 23.7 µM (inactive); with A549, 23.1 µM (inactive).
`O=c1c(O)cccn1C1OC(CO)C(O)C1O` (centres undefined): the GI50 with HOP-92 was > 100 µM (inactive); with CAKI-1, > 100 µM (inactive); in the assay with SK-MEL-28, > 100 µM (inactive); in the assay with HT-29 it was > 100 µM (inactive); with K562, > 100 µM (inactive); in the assay on HCT-15, above 100 µM. In addition, the GI50 in the assay on CCRF-CEM, in the assay on UACC-257, in the assay on OVCAR-5, in the assay with HCT-116, in the assay on OVCAR-4 and in the assay with Malme-3M was > 100 µM (inactive) throughout. For the same compound, the GI50 in the assay on TK-10 and in the assay on A549 was > 100 µM (inactive) each time.

Source of the values: ChEMBL document CHEMBL1201862, “PubChem BioAssay data set” (2004).
